In assay [1] the target is T1, CXCR6 (Homo sapiens, UniProt O00574). In words: β-arrestin recruitment inhibition in CXCR6-expressing CHO-K1 cells (PathHunter, DiscoveRx). The format is cell-based. The protocol:
(§1) Compounds of Formula (I), (Ia), (Ib), (Ic), (Id), and (II) are tested for their ability to inhibit β-arrestin recruitment in CXCR6-expressing CHO-K1 cells using the β-galactosidase PathHunter Enzyme Complementation Platform from DiscoveRx. A detailed protocol for this assay is available on PubChem (AIDs 624129). Accordingly, 800 CHO-K1 cells expressing CXCR6 (DiscoveRx, Cat #93-0205C2) are seeded into the wells of a white opaque 1536-well plate, centrifuged, and incubated overnight at 37° C., 5% CO2. The next day, compounds of Formula (I), (Ia), (Ib), (Ic), (Id), and (II) and controls (CXCL16 (10 nM) or DMSO) are dispensed into wells and incubated for 1.5 h. The assay is terminated upon addition of lysis buffer, detection substrate, and enzyme. Luminescence is read on the Envision plate reader 1 h post-termination. All compounds are tested in a 10 pt dose-response curve in duplicate. Compounds will also be tested in a CXCR6-dependent cAMP assay using the Lance Ultra assay from PerkinElmer. Accordingly, 2 uL CXCR6-expressing cells are suspended in assay media (OptiMEM; 2% FBS; 1×P/S) and plated at 500 cells/well in 1536-well, white, TC plates and grown overnight at 37° C.; 5% CO2. 40 nL test compounds of Formula (I), (Ia), (Ib), (Ic), (Id), and (II) are added to cells using ECHO dispenser. 2 uL of 2.5 mM forskolin in stimulation buffer (HBSS; 5 mM HEPES; 0.1% BSA; 0.1 mM RO-20-1724) with or without 20 nM CXCL16 is transferred to wells using BioRAPTR. Wells treated with forskolin and CXCL16 serve as negative controls and wells treated with forskolin only serve as positive controls. Cells are incubated at room temperature for 30 min followed by addition of 2 uL each EU-cAMP tracer and ULight anti-cAMP Ab in detection buffer according to manufacturer's instruction. After 30 min at room temperature, TR-FRET is read using EnVision plate reader.

The target in assay [2] is T1, CXCR6. In words: CXCR6-dependent cAMP assay (Lance Ultra, PerkinElmer). The format is cell-based. As to conditions: CXCR6-expressing cells, forskolin + CXCL16; Table B-1. The protocol: as §1
The subject of assay [3] is SK-Hep-1 cancer xenograft. In words: SK-Hep-1 cancer xenograft tumor growth. The format is in vivo. Particulars: compared to control; FIG. 1 legend.
[4] abbreviates: CXCR6-expressing CHO-K1 cells, Table B-1, read-out: IC50 (β-arrestin).

Experimental findings from US20220402908A1, “CXCR6 INHIBITORS AND METHODS OF USE” (Sanford Burnham Prebys Medical Discovery Institute, priority 2019, published 2022) are described below.

pIC50: −log10 of the molar value. Where only a bound is given, the exact number is not on record here.

T1 sequence (O00574 whole entry): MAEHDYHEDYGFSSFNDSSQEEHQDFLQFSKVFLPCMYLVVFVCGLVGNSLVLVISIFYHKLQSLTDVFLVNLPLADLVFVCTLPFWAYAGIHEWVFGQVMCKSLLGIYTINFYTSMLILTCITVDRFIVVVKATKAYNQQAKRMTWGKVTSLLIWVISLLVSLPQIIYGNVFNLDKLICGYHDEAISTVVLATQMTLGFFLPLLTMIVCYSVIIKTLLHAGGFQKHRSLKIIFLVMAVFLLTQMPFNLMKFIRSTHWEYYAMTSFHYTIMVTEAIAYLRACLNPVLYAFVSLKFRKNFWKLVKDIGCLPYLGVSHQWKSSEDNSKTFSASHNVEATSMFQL

Take `CCC(C)Oc1ccc(C(=O)N[C@@H]2C[C@H]3CCC[C@@H](C2)N3Cc2nc3c(C(F)(F)F)cccc3s2)cc1OC` (stereo partly drawn) [4-(sec-butoxy)-3-methoxy-N-((1R,3s,5S)-9-((4-(trifluoromethyl)benzo[d]thiazol-2-yl)methyl)-9-azabicyclo[3.3.1]nonan-3-yl)benzamide]: the pIC50 in assay [1] (setting [4]) is greater than 7.00.

`COc1cc(C(=O)N[C@@H]2C[C@H]3CCC[C@@H](C2)N3Cc2nc3c(C(F)(F)F)cccc3s2)ccc1OC(C)C` [4-isopropoxy-3-methoxy-N-((1R,3s,5S)-9-((4-(trifluoromethyl)benzo[d]thiazol-2-yl)methyl)-9-azabicyclo[3.3.1]nonan-3-yl)benzamide] showed a pIC50 in assay [1] of 5.70 to 7.00.

In assay [1], `COc1cc(C(=O)N2C[C@H]3CCC[C@@H](C2)N3Cc2nc3c(C(F)(F)F)cccc3s2)cc(OC)c1OC` [((1R,5S)-9-((4-(trifluoromethyl)benzo[d]thiazol-2-yl)methyl)-3,9-diazabicyclo[3.3.1]nonan-3-yl)(3,4,5-trimethoxyphenyl)methanone] showed a pIC50 of 5.70 to 7.00.

Turning to `COc1cc(C(=O)N[C@@H]2C[C@H]3CCC[C@@H](C2)N3Cc2nc3c(C(F)(F)F)cccc3s2)cc(OC)c1OC` [Compound 1, 3,4,5-trimethoxy-N-((1R,3s,5S)-9-((4-(trifluoromethyl)benzo[d]thiazol-2-yl)methyl)-9-azabicyclo[3.3.1]nonan-3-yl)benzamide], the negative-log IC50 (pIC50) in assay [1] was greater than 7.00.

As to `COc1cc(C(=O)N[C@@H]2C[C@H]3CCC[C@@H](C2)N3CC(=O)Nc2ccccc2Cl)cc(OC)c1OC` [N-((1R,3s,5S)-9-(2-((2-chlorophenyl)amino)-2-oxoethyl)-9-azabicyclo[3.3.1]nonan-3-yl)-3,4,5-trimethoxybenzamide], the negative logarithm of the IC50 (pIC50) in assay [1] (setting [4]) is 5.70 to 7.00; in assay [2], 5.30 to 5.70.

In assay [1], `COc1cc(C(=O)N[C@@H]2C[C@H]3CCC[C@@H](C2)N3Cc2nc3c(Cl)c(Cl)ccc3s2)cc(OC)c1OC` [N-((1R,3s,5S)-9-((4,5-dichlorobenzo[d]thiazol-2-yl)methyl)-9-azabicyclo[3.3.1]nonan-3-yl)-3,4,5-trimethoxybenzamide] had a pIC50 greater than 7.00.

As for `COc1cc(C(=O)N[C@@H]2C[C@H]3CCC[C@@H](C2)N3Cc2nc3c(Cl)cccc3s2)cc(OC)c1OC` [N-((1R,3s,5S)-9-((4-chlorobenzo[d]thiazol-2-yl)methyl)-9-azabicyclo[3.3.1]nonan-3-yl)-3,4,5-trimethoxybenzamide], the negative-log IC50 (pIC50) in assay [1] (setting [4]) and in assay [2] was 5.70 to 7.00 each time.

On to `COc1cc(C(=O)N[C@@H]2C[C@H]3CCC[C@@H](C2)N3Cc2cc3ccccc3s2)cc(OC)c1OC` [N-((1R,3s,5S)-9-(benzo[b]thiophen-2-ylmethyl)-9-azabicyclo[3.3.1]nonan-3-yl)-3,4,5-trimethoxybenzamide], for which the pIC50 was 5.70 to 7.00 in assay [1] (setting [4]) and 4.70 to 5.30 in assay [2].

On to `O=P1(N(CCCl)CCCl)NCCCO1` (stereo not drawn) [cyclophosphamide], for which the “tumor growth, SK-Hep-1 cancer xenograft” value in assay [3] is “tumor growth reduction”.
